From BindingDB's records for doi:10.1021/jm00089a010 (Abbott Laboratories, 1992)
Where a SMILES comes first, the peptide text is derived from it. [ ]: non-standard residue; d: D form. The star is where a group is joined. Acryloyl(3-(pyridin-3-yl)) = O=C(C=Cc1cccnc1)*; 2Naphthoyl(6-OH) = O=C(c1ccc2cc(O)ccc2c1)*; Hydrocinnamoyl(4-Me) = Cc1ccc(CCC(=O)*)cc1; Quinoline3carbonyl = O=C(c1cnc2ccccc2c1)*; X36 = O=C(C=Cc1ccc(OS(=O)(=O)O)cc1)*; X20 = CC(=O)Oc1ccc2cc(C(=O)*)ccc2c1; Hydrocinnamoyl = O=C(CCc1ccccc1)*; X17 = COc1ccc(/C=C\C(=O)*)c(OC)c1; NMeF = CN[C@@H](Cc1ccccc1)C(=O)O; X10 = O=C(/C=C\c1ccc(Cl)cc1Cl)*; X14 = O=C(c1cc2cc(O)ccc2[nH]1)*; X2 = O=C(c1cc2cc(Cl)ccc2[nH]1)*; X31 = COc1ccc(/C=C\C(=O)*)cc1OC; X37 = O=C(C=Cc1c[nH]c2ccccc12)*; X8 = COc1ccc2[nH]c(C(=O)*)cc2c1; X12 = O=C(c1cnc2cccc(O)c2c1)*; X18 = O=C(c1cc2ccccc2[nH]1)*; X16 = O=C(/C=C\c1ccccc1O)*; X19 = O=C(/C=C\c1ccccc1)*; X27 = O=C(Cc1ccc(O)cc1)*; Boc = CC(C)(C)OC(=O)*

biological target: Gastrin/cholecystokinin type B receptor (Cavia porcellus); assay: Inhibition of specific binding of [125I]BH-CCK-8 in guinea pig cortex

Row | SMILES | IC50 [nM]
1 | CC(=O)Oc1ccc2cc(C(=O)NCCCC[C@H](NC(=O)[C@H](Cc3c[nH]c4ccccc34)NC(=O)OC(C)(C)C)C(=O)N[C@@H](CC(=O)O)C(=O)N[C@@H](Cc3ccccc3)C(N)=O)ccc2c1 (Boc-WK(X20)DF-NH2) | 1400
2 | Cc1ccc(CCC(=O)NCCCC[C@H](NC(=O)[C@H](Cc2c[nH]c3ccccc23)NC(=O)OC(C)(C)C)C(=O)N[C@@H](CC(=O)O)C(=O)N[C@@H](Cc2ccccc2)C(N)=O)cc1 [3-[2-[2-tert-Butoxycarbonylamino-3-(1H-indol-3-yl)-propionylamino]-6-(3-p-tolyl-propionylamino)-hexanoylamino]-N-(1-carbamoyl-2-phenyl-ethyl)-succinamic acid] (Boc-WK(Hydrocinnamoyl(4-Me))DF-NH2) | 10000
3 | CC(C)(C)OC(=O)N[C@@H](Cc1c[nH]c2ccccc12)C(=O)N[C@@H](CCCCNC(=O)/C=C\c1ccccc1)C(=O)N[C@@H](CC(=O)O)C(=O)N[C@@H](Cc1ccccc1)C(N)=O [3-[2-[2-tert-Butoxycarbonylamino-3-(1H-indol-3-yl)-propionylamino]-6-(3-phenyl-acryloylamino)-hexanoylamino]-N-(1-carbamoyl-2-phenyl-ethyl)-succinamic acid.AcOH] (Boc-WK(X19)DF-NH2) | 1800
4 | CC(C)(C)OC(=O)N[C@@H](Cc1c[nH]c2ccccc12)C(=O)N[C@@H](CCCCNC(=O)CCc1ccccc1)C(=O)N[C@@H](CC(=O)O)C(=O)N[C@@H](Cc1ccccc1)C(N)=O [3-[2-[2-tert-Butoxycarbonylamino-3-(1H-indol-3-yl)-propionylamino]-6-(3-phenyl-propionylamino)-hexanoylamino]-N-(1-carbamoyl-2-phenyl-ethyl)-succinamic acid.2AcOH] (Boc-WK(Hydrocinnamoyl)DF-NH2) | 5900
5 | CC(C)(C)OC(=O)N[C@@H](Cc1c[nH]c2ccccc12)C(=O)N[C@@H](CCCCNC(=O)Cc1ccc(O)cc1)C(=O)N[C@@H](CC(=O)O)C(=O)N[C@@H](Cc1ccccc1)C(N)=O [3-{2-[2-tert-Butoxycarbonylamino-3-(1H-indol-3-yl)-propionylamino]-6-[2-(4-hydroxy-phenyl)-acetylamino]-hexanoylamino}-N-(1-carbamoyl-2-phenyl-ethyl)-succinamic acid; hydrate] (Boc-WK(X27)DF-NH2) | 480
6 | CC(C)(C)OC(=O)N[C@@H](Cc1c[nH]c2ccccc12)C(=O)N[C@@H](CCCCNC(=O)/C=C\c1ccc(Cl)cc1Cl)C(=O)N[C@@H](CC(=O)O)C(=O)N[C@@H](Cc1ccccc1)C(N)=O [3-{2-[2-tert-Butoxycarbonylamino-3-(1H-indol-3-yl)-propionylamino]-6-[3-(2,4-dichloro-phenyl)-acryloylamino]-hexanoylamino}-N-(1-carbamoyl-2-phenyl-ethyl)-succinamic acid; hydrate] (Boc-WK(X10)DF-NH2) | 5000
7 | COc1ccc(/C=C\C(=O)NCCCC[C@H](NC(=O)[C@H](Cc2c[nH]c3ccccc23)NC(=O)OC(C)(C)C)C(=O)N[C@@H](CC(=O)O)C(=O)N[C@@H](Cc2ccccc2)C(N)=O)c(OC)c1 [3-{2-[2-tert-Butoxycarbonylamino-3-(1H-indol-3-yl)-propionylamino]-6-[3-(2,4-dimethoxy-phenyl)-acryloylamino]-hexanoylamino}-N-(1-carbamoyl-2-phenyl-ethyl)-succinamic acid; hydrate] (Boc-WK(X17)DF-NH2) | 3000
8 | CC(C)(C)OC(=O)N[C@@H](Cc1c[nH]c2ccccc12)C(=O)N[C@@H](CCCCNC(=O)/C=C\c1ccccc1O)C(=O)N[C@@H](CC(=O)O)C(=O)N[C@@H](Cc1ccccc1)C(N)=O [3-{2-[2-tert-Butoxycarbonylamino-3-(1H-indol-3-yl)-propionylamino]-6-[3-(2-hydroxy-phenyl)-acryloylamino]-hexanoylamino}-N-(1-carbamoyl-2-phenyl-ethyl)-succinamic acid; hydrate] (Boc-WK(X16)DF-NH2) | 210
9 | COc1ccc(/C=C\C(=O)NCCCC[C@H](NC(=O)[C@H](Cc2c[nH]c3ccccc23)NC(=O)OC(C)(C)C)C(=O)N[C@@H](CC(=O)O)C(=O)N[C@@H](Cc2ccccc2)C(N)=O)cc1OC [3-{2-[2-tert-Butoxycarbonylamino-3-(1H-indol-3-yl)-propionylamino]-6-[3-(3,4-dimethoxy-phenyl)-acryloylamino]-hexanoylamino}-N-(1-carbamoyl-2-phenyl-ethyl)-succinamic acid; hydrate] (Boc-WK(X31)DF-NH2) | 4000

Second part, the compound after the results:

Row | IC50 [nM] | SMILES
10 | 730 | CN(C(=O)[C@H](CC(=O)O)NC(=O)[C@H](CCCCNC(=O)c1ccc2cc(O)ccc2c1)NC(=O)[C@H](Cc1c[nH]c2ccccc12)NC(=O)OC(C)(C)C)[C@@H](Cc1ccccc1)C(N)=O (Boc-WK(2Naphthoyl(6-OH))D[NMeF]-NH2)
11 | 120 | CN(C(=O)[C@H](CC(=O)O)NC(=O)[C@H](CCCCNC(=O)C=Cc1cccnc1)NC(=O)[C@H](Cc1c[nH]c2ccccc12)NC(=O)OC(C)(C)C)[C@@H](Cc1ccccc1)C(N)=O (Boc-WK(Acryloyl(3-(pyridin-3-yl)))D[NMeF]-NH2)
12 | 200 | CC(C)(C)OC(=O)N[C@@H](Cc1c[nH]c2ccccc12)C(=O)N[C@@H](CCCCNC(=O)c1cnc2ccccc2c1)C(=O)N[C@@H](CC(=O)O)C(=O)N[C@@H](Cc1ccccc1)C(N)=O (Boc-WK(Quinoline3carbonyl)DF-NH2)
13 | 5200 | CC(C)(C)OC(=O)N[C@@H](Cc1c[nH]c2ccccc12)C(=O)N[C@@H](CCCCNC(=O)c1cc2cc(Cl)ccc2[nH]1)C(=O)N[C@@H](CC(=O)O)C(=O)N[C@@H](Cc1ccccc1)C(N)=O (Boc-WK(X2)DF-NH2)
14 | 3000 | COc1ccc2[nH]c(C(=O)NCCCC[C@H](NC(=O)[C@H](Cc3c[nH]c4ccccc34)NC(=O)OC(C)(C)C)C(=O)N[C@@H](CC(=O)O)C(=O)N[C@@H](Cc3ccccc3)C(N)=O)cc2c1 (Boc-WK(X8)DF-NH2)
15 | 670 | CC(C)(C)OC(=O)N[C@@H](Cc1c[nH]c2ccccc12)C(=O)N[C@@H](CCCCNC(=O)c1cnc2cccc(O)c2c1)C(=O)N[C@@H](CC(=O)O)C(=O)N[C@@H](Cc1ccccc1)C(N)=O (Boc-WK(X12)DF-NH2)
16 | 830 | CC(C)(C)OC(=O)N[C@@H](Cc1c[nH]c2ccccc12)C(=O)N[C@@H](CCCCNC(=O)c1cc2cc(O)ccc2[nH]1)C(=O)N[C@@H](CC(=O)O)C(=O)N[C@@H](Cc1ccccc1)C(N)=O (Boc-WK(X14)DF-NH2)
17 | 2100 | CC(C)(C)OC(=O)N[C@@H](Cc1c[nH]c2ccccc12)C(=O)N[C@@H](CCCCNC(=O)c1cc2ccccc2[nH]1)C(=O)N[C@@H](CC(=O)O)C(=O)N[C@@H](Cc1ccccc1)C(N)=O (Boc-WK(X18)DF-NH2)
18 | 1000 | CN(C(=O)[C@H](CC(=O)O)NC(=O)[C@H](CCCCNC(=O)C=Cc1ccc(OS(=O)(=O)O)cc1)NC(=O)[C@H](Cc1c[nH]c2ccccc12)NC(=O)OC(C)(C)C)[C@@H](Cc1ccccc1)C(N)=O (Boc-WK(X36)D[NMeF]-NH2)
19 | 4700 | CC(C)(C)OC(=O)N[C@@H](Cc1c[nH]c2ccccc12)C(=O)N[C@@H](CCCCNC(=O)C=Cc1c[nH]c2ccccc12)C(=O)N[C@@H](CC(=O)O)C(=O)N[C@@H](Cc1ccccc1)C(N)=O (Boc-WK(X37)DF-NH2)
